The text below walks through data of EP2712863B1, “Novel inhibitors of bacterial biofilms and related methods” (Sequoia Sciences, Inc., priority 2012, dated 2014).

Experiment [1] has as its system E. coli. Kind of experiment: Biofilm growth assay (spreading biofilm on semi-solid agar). It is filed as cell-based. Conditions: Escherichia coli, read-out: E. coli. The text has this:
(§1) "Biofilm Growth Assay" refers to an assay performed on semi-solid agar surface where the bacteria collectively move out from an inoculation point. To those skilled in the art, the act of bacteria collectively moving out from an inoculation point on a semi-solid surface may be referred to as swarming or a spreading biofilm. (Anderson, et al Microbiology, 2003, 149, 37-46; Daniels, et al. FEMS Microbiology Reviews, 2004, 28, 261-289). The procedure to perform this assay is described in detail in the Examples. This type of surface motility by bacteria has been reported in the literature by those skilled in the art.
(§2) The biofilm growth assay was carried out to measure swarming or biofilm spreading on semi-solid agar media in round plates (for example, 100 × 15 mm), also referred to as Petri dishes. For E. coli, the plates contained LB medium with 0.6% agar and 0.5% glucose. P. aeruginosa plates were made with M8 agar supplemented with 0.2% glucose, 100 µM CaCl2, 1 mM MgSO4, and 0.5% Casamino acids. The agar plates of this assay consisted of 0.4% to 0.7% agar (Bacto or Noble agar), although other media may also be used as described in the literature and known to those skilled in the art. Test compounds at the desired concentration were added to the cooled, autoclaved media. Portions of the media were then poured into the plates (20 mL/plate), and the plates allowed to dry at room temperature for approximately 3 to 4 hours. Alternatively, however, plates may be dried in a laminar flow hood for approximately fifteen to twenty minutes. Overnight cultures were grown in a 37°C shaker in LB (E. coli) or TSB (P. aeruginosa). Plates were inoculated by placing 5 µL of the appropriate overnight culture in the centers of the plates. The plates then were incubated overnight at 37°C. The area of the zone of spreading bacteria was then measured and replicates are averaged. Percent inhibition was calculated as 100 × (area without compound - area with compound)/(area without compound). An active compound was considered that which reduces the area of the spreading biofilm compared to negative controls by greater than or equal to 85%. The values shown in Table 1 are the concentrations of compounds (µg/ml) tested in the biofilm growth assay that reduce the area of the spreading biofilm compared to negative controls by greater than or equal to 85% unless noted differently in Table 1. A > ("greater than" symbol) as used in Table 1 is well understood to those skilled in the art as an indication that the listed concentration was not effective at this concentration.
(§3) All of the compounds shown in Tables 2, 3, 4, and 5, below, were prepared semi-synthetically from oleanolic acid, except for Compounds 2 and 3. Compound 2 was prepared from ursolic acid. Compound 3 was prepared from hederagenin, but could also be prepared from an oleanolic acid analog with a hydroxyl at C23 or C24. These compounds were tested in the spreading biofilm assay according to the methods detailed in Example I, above. The values shown in Tables 2, 3, 4, and 5 are the concentrations of compounds tested in the biofilm growth assay that reduce the area of the spreading biofilm compared to negative controls by greater than or equal to 85%. Table 2. Compound 1 and its Analogs and their inhibitory concentrations in the biofilm growth assay as detailed in Example I, above

For experiment [2], the system named is P. aeruginosa. The experiment is described as above. To be noted: Pseudomonas aeruginosa, read-out: P. aeruginosa. It counts as cell-based.
Text: as §1, §2, §3

[3] abbreviates: Table 2, concentration that reduces the area of the spreading biofilm by >= 85%.
Setting [4] is: Table 3, concentration that reduces the area of the spreading biofilm by >= 85%.
Where [5] appears, read: Table 4, concentration that reduces the area of the spreading biofilm by >= 85%.
[6] abbreviates: Table 1, concentration that reduces the area of the spreading biofilm vs negative controls by >= 85%, > means not effective at this concentration.
[7] abbreviates: Table 5, concentration that reduces the area of the spreading biofilm by >= 85%.

Molecules are shown by their SMILES. In brackets after ≈: the same amount, converted by molar mass. Where two headings read alike, the source gives them in different places. Where only a bound is given, the exact number is not on record here.

Take `CC1(C)CC[C@]2(C(=O)O)CC[C@]3(C)C(=C(c4ccc5c(c4)CCN5)CC4[C@@]5(C)Cc6c(n[nH]c6N)C(C)(C)C5CC[C@]43C)C2C1` (stereo partly drawn) [Compound 11, (4aS,6aS,6bR,13aR)-12-Amino-15-(indolin-5-yl)-2,2,6a,6b,9,9,13a-heptamethyl-2,3,4,4a,5,6,6a,6b,7,8,8a,9,11,13,13a,13b,14,15b-octadecahydro-1H-chryseno[1,2-f]indazole-4a-carboxylic acid]: the IC85 in experiment [1] (setting [3]) and in experiment [2] (setting [3]) was 0.5 µg/mL (≈ 0.818 µM) in each case.

For the compound `CC1(C)CC[C@]2(C(=O)O)CC[C@]3(C)C(=C(c4ccoc4)CC4[C@@]5(C)Cc6c(n[nH]c6N)C(C)(C)[C@@H]5CC[C@]43C)[C@@H]2C1` (stereo partly drawn) [Compound 26, (4aS,6aS,6bR,8aR,13aR,15bS)-12-Amino-15-(furan-3-yl)-2,2,6a,6b,9,9,13a-heptamethyl-2,3,4,4a,5,6,6a,6b,7,8,8a,9,11,13,13a,13b,14,15b-octadecahydro-1H-chryseno[1,2-f]indazole-4a-carboxylic acid], the IC85 in experiment [1] (setting [4]) turned out to be 1 µg/mL (≈ 1.79 µM); in experiment [2] (setting [4]), 0.25 µg/mL (≈ 0.447 µM).

Take `CC1(C)CC[C@]2(C(=O)Nc3nnc(N)s3)CC[C@]3(C)C(=CCC4[C@@]5(C)Cc6c(n[nH]c6N)C(C)(C)C5CC[C@]43C)C2C1` (stereo partly drawn) [Compound 71, (4aS,6aS,6bR,13aR)-12-Amino-N-(5-amino-1,3,4-thiadiazol-2-yl)-2,2,6a,6b,9,9,13a-heptamethyl-2,3,4,4a,5,6,6a,6b,7,8,8a,9,11,13,13a,13b,14,15b-octadecahydro-1H-chryseno[1,2-f]indazole-4a-carboxamide]: the IC85 in experiment [1] (setting [5]) was 2 µg/mL (≈ 3.38 µM); in experiment [2] (setting [5]) it was 0.5 µg/mL (≈ 0.845 µM).

For `CN1CCN(c2ccc(C3=C4C5CC(C)(C)CC[C@]5(C(=O)O)CC[C@@]4(C)[C@]4(C)CCC5C(C)(C)c6n[nH]c(N)c6C[C@]5(C)C4C3)cc2)CC1` (stereo partly drawn) [Compound 53, (4aS,6aS,6bR,13aR)-12-Amino-2,2,6a,6b,9,9,13a-heptamethyl-15-(4-(4-methylpiperazin-1-yl)phenyl)-2,3,4,4a,5,6,6a,6b,7,8,8a,9,11,13,13a,13b,14,15b-octadecahydro-1H-chryseno[1,2-f]indazole-4a-carboxylic acid], the IC85 worked out at 2 µg/mL (≈ 2.99 µM) in experiment [1] (setting [4]) and 0.5 µg/mL (≈ 0.749 µM) in experiment [2] (setting [4]).

As for `C[C@H]1[C@H](C)CC[C@]2(CO)CC[C@]3(C)C(=CC[C@@H]4[C@@]5(C)CC[C@H](O)C(C)(C)[C@@H]5CC[C@]43C)[C@H]12` [Uvaol, reference compound], the IC85 is above 8 µg/mL in experiment [1] (setting [6]) and above 128 µg/mL in experiment [2] (setting [6]).

As to `C[C@@H]1c2n[nH]c(N)c2C[C@]2(C)C3CC=C4[C@@H]5CC(C)(C)CC[C@]5(C(=O)O)CC[C@@]4(C)[C@]3(C)CC[C@@H]12` (stereo partly drawn) [Compound 3, (4aS,6aS,6bR,8aS,9S,13aS,15bS)-12-Amino-2,2,6a,6b,9,13a-hexamethyl-2,3,4,4a,5,6,6a,6b,7,8,8a,9,11,13,13a,13b,14,15b-octadecahydro-1H-chryseno[1,2-f]indazole-4a-carboxylic acid], the IC85 in experiment [1] (setting [3]) worked out at 1 µg/mL (≈ 2.08 µM); in experiment [2] (setting [3]), 0.5 µg/mL (≈ 1.04 µM).

In the case of `C=C(C)[C@@H]1CC[C@]2(C)CC[C@]3(C)[C@H](CC[C@@H]4[C@@]5(C)CC[C@H](O)C(C)(C)[C@@H]5CC[C@]43C)[C@@H]12` [Lupeol, reference compound], the IC85 in experiment [1] (setting [6]) was above 8 µg/mL; in experiment [2] (setting [6]), above 16 µg/mL.

As for `CC1(C)CC[C@]2(C(=O)O)CC[C@]3(C)C(=C(c4c[nH]cc4CN4CCOCC4)CC4[C@@]5(C)Cc6c(n[nH]c6N)C(C)(C)[C@@H]5CC[C@]43C)[C@@H]2C1` (stereo partly drawn) [Compound 33, (4aS,6aS,6bR,8aR,13aR,15bS)-12-Amino-2,2,6a,6b,9,9,13a-heptamethyl-15-(4-(morpholinomethyl)-1H-pyrrol-3-yl)-2,3,4,4a,5,6,6a,6b,7,8,8a,9,11,13,13a,13b,14,15b-octadecahydro-1H-chryseno[1,2-f]indazole-4a-carboxylic acid], the IC85 in experiment [1] (setting [4]) was found to be 4 µg/mL (≈ 6.08 µM); in experiment [2] (setting [4]) it was 2 µg/mL (≈ 3.04 µM).

As for `CC1(C)CC[C@]2(c3n[nH]c(O)c3CCN)CC[C@]3(C)C(=C(c4ccoc4CN4CCOCC4)CC4[C@@]5(C)Cc6c(n[nH]c6N)C(C)(C)[C@@H]5CC[C@]43C)[C@@H]2C1` (stereo partly drawn) [Compound 92, 3-((4aS,6aS,6bR,8aR,13aR,15bS)-12-Amino-2,2,6a,6b,9,9,13a-heptamethyl-15-(2-(morpholinomethyl)furan-3-yl)-2,3,4,4a,5,6,6a,6b,7,8,8a,9,11,13,13a,13b,14,15b-octadecahydro-1H-chryseno[1,2-f]indazol-4a-yl)-4-(2-aminoethyl)-1H-pyrazol-5-ol], the IC85 in experiment [1] (setting [7]) is 2 µg/mL (≈ 2.7 µM); in experiment [2] (setting [7]), 0.5 µg/mL (≈ 0.676 µM).

As for `CC1(C)CC[C@]2(C(=O)Sc3nnc(N)[nH]3)CC[C@]3(C)C(=C(c4cccnc4)CC4[C@@]5(C)Cc6c(n[nH]c6N)C(C)(C)[C@@H]5CC[C@]43C)[C@@H]2C1` (stereo partly drawn) [Compound 91, (4aS,6aS,6bR,8aR,13aR,15bS)-S-5-Amino-4H-1,2,4-triazol-3-yl 12-amino-2,2,6a,6b,9,9,13a-heptamethyl-15-(pyridin-3-yl)-2,3,4,4a,5,6,6a,6b,7,8,8a,9,11,13,13a,13b,14,15b-octadecahydro-1H-chryseno[1,2-f]indazole-4a-carbothioate], the IC85 in experiment [1] (setting [7]) and in experiment [2] (setting [7]) was 1 µg/mL (≈ 1.49 µM) in each case.

With `CC1(C)CC[C@]2(C(=O)Sc3nnc(N)[nH]3)CC[C@]3(C)C(=CCC4[C@@]5(C)Cc6c(n[nH]c6N)C(C)(C)C5CC[C@]43C)C2C1` (stereo partly drawn) [Compound 70, (4aS,6aS,6bR,13aR)-S-5-Amino-4H-1,2,4-triazol-3-yl 12-amino-2,2,6a,6b,9,9,13a-heptamethyl-2,3,4,4a,5,6,6a,6b,7,8,8a,9,11,13,13a,13b,14,15b-octadecahydro-1H-chryseno[1,2-f]indazole-4a-carbothioate], the IC85 in experiment [1] (setting [5]) was 2 µg/mL (≈ 3.38 µM); in experiment [2] (setting [5]), 0.5 µg/mL (≈ 0.845 µM).

On to `CN(C)c1cccc(C2=C3C4CC(C)(C)CC[C@]4(C(=O)O)CC[C@@]3(C)[C@]3(C)CCC4C(C)(C)c5n[nH]c(N)c5C[C@]4(C)C3C2)c1` (stereo partly drawn) [Compound 21, (4aS,6aS,6bR,13aR)-12-Amino-15-(3-(dimethylamino)phenyl)-2,2,6a,6b,9,9,13a-heptamethyl-2,3,4,4a,5,6,6a,6b,7,8,8a,9,11,13,13a,13b,14,15b-octadecahydro-1H-chryseno[1,2-f]indazole-4a-carboxylic acid], for which the IC85 is above 2 µg/mL in experiment [1] (setting [4]) and 0.5 µg/mL (≈ 0.816 µM) in experiment [2] (setting [4]).

For `CN(C)c1ccc(C2=C3C4CC(C)(C)CC[C@]4(C(=O)O)CC[C@@]3(C)[C@]3(C)CCC4C(C)(C)c5n[nH]c(N)c5C[C@]4(C)C3C2)cc1` (stereo in doubt) [Compound 10, (4aS,6aS,6bR,13aR)-12-Amino-15-(4-(dimethylamino)phenyl)-2,2,6a,6b,9,9,13a-heptamethyl-2,3,4,4a,5,6,6a,6b,7,8,8a,9,11,13,13a,13b,14,15b-octadecahydro-1H-chryseno[1,2-f]indazole-4a-carboxylic acid], the IC85 in experiment [1] (setting [3]) is 1 µg/mL (≈ 1.63 µM); in experiment [2] (setting [3]), 0.5 µg/mL (≈ 0.816 µM).

In the case of `CC1(C)CC[C@]2(C(=O)O)CC[C@]3(C)C(=C(c4ccncc4)CC4[C@@]5(C)Cc6c(n[nH]c6N)C(C)(C)[C@@H]5CC[C@]43C)[C@@H]2C1` (stereo partly drawn) [Compound 29, (4aS,6aS,6bR,8aR,13aR,15bS)-12-Amino-2,2,6a,6b,9,9,13a-heptamethyl-15-(pyridin-4-yl)-2,3,4,4a,5,6,6a,6b,7,8,8a,9,11,13,13a,13b,14,15b-octadecahydro-1H-chryseno[1,2-f]indazole-4a-carboxylic acid], the IC85 in experiment [1] (setting [4]) and in experiment [2] (setting [4]) was 1 µg/mL (≈ 1.75 µM) in each case.
